Source: patent publication US11274092B2, “Potassium channel inhibitors” (ACESION PHARMA ApS, priority 2016, dated 2022)

target: T1, human SK3 channel (hKCa2.3) (Homo sapiens, UniProt Q9UGI6); experiment: Automated whole cell patch-clamp (QPatch 16 HT), inhibition of SK3 current; assay type: cell-based; settings: HEK-293 cells stably expressing hKCa2.3; symmetrical K+ solutions, free calcium 400 nM; effects normalized to N-methyl bicuculline
T1 construct: expressed in transfected cells
Procedure: Automated whole cell patch-clamp recordings were performed using a QPatch 16 HT system and single-hole Qplates (Biolin Scientific, Sophion, Denmark) on HEK-293 cells stably expressing the human SK3 channel (hKCa2.3). Cells were cultured and prepared for experiments using normal cell culturing procedures. A total of 4-5 million cells were used per experiment. The Qpatch automatically generates giga sealing, whole-cell formation, compound application and recording of current. hKCa2.3 currents were recorded in symmetrical K^+ solutions, with an intracellular solution consisting of in mM: KCl 108; KOH/EGTA (ethylene glycol-bis(2-aminoethylether)-N,N,N′,N′-tetraacetic acid) 31.25/10; CaCl2) 8.1; MgCl2 1.2; HEPES (2-[4-(2-hydroxyethyl)piperazin-1-yl]ethanesulfonic acid) 10; KOH 15, pH adjusted to pH=7.2 with HCl. The free calcium concentration was calculated to 400 nM. The extracellular solution consisted of in mM: KCl 150; CaCl2) 0.1; MgCl2 3; HEPES 10; Glucose 10, pH=7.4 with KOH. The cells were held at 0 mV and hKCa2.3 currents were elicited by a linear voltage ramp from […] (200 ms in duration) applied every 5th second. The compound application protocol consisted of 12 recording periods lasting from 50-200 s: 1) Baseline recordings in extracellular solution; 2) Application of the positive control N-methyl bicuculline (100 μM), which is characterized by full efficacy, fast on- and off-rate; 3-4) Wash-out; 5-9) Increasing concentrations of test compound to establish an IC50 value; 10-11) Wash-out; 12) positive control with compound NS8593 (N-[(1R)-1,2,3,4-tetrahydro-1-naphthalenyl]-1H-benzimidazol-2-amine) (1 μM). Data were sampled at 10 kHz, 4th order Bessel filter, cut-off frequency 3 kHz. Currents were compensated for run-down. Potency was quantified as the concentration needed to inhibit half of the SK channel activity and reported as an IC50 value. All effects of compounds of the present invention as tested were normalized to the observed inhibitory effect of N-methyl bicuculline.

SMILES | IC50 [µM]
O=C(CC(Nc1nc2ccccc2[nH]1)c1cccc(C(F)(F)F)c1)NCCNS(=O)(=O)Cc1ccccc1 (centres unmarked) [Example 12, 3-[(1H-1,3-benzodiazol-2-yl)amino]-N-[2-(phenylmethanesulfonamido)ethyl]-3-[3-(trifluoromethyl)phenyl]propanamide] | 10 to 100
O=C(CC(Nc1nc2ccccc2[nH]1)c1cccc(C(F)(F)F)c1)N1CC[C@@H](O)C1 (stereo partly drawn) [Example 14, 3-[(1H-1,3-benzodiazol-2-yl)amino]-1-[(3R)-3-hydroxypyrrolidin-1-yl]-3-[3-(trifluoromethyl)phenyl]propan-1-one] | 10 to 100
O=C(CC(Nc1nc2ccccc2[nH]1)c1cccc(C(F)(F)F)c1)NCCCO (centres unmarked) [Example 16, 3-[(1H-1,3-benzodiazol-2-yl)amino]-N-(3-hydroxypropyl)-3-[3-(trifluoromethyl)phenyl]propanamide] | 10 to 100
CN(CCCO)C(=O)CC(Nc1nc2ccccc2[nH]1)c1cccc(C(F)(F)F)c1 (centres unmarked) [Example 17, 3-[(1H-1,3-benzodiazol-2-yl)amino]-N-(3-hydroxypropyl)-N-methyl-3-[3-(trifluoromethyl)phenyl]propanamide] | < 10
O=C(CC(Nc1nc2ccccc2[nH]1)c1cccc(C(F)(F)F)c1)NCc1ncco1 (centres unmarked) [Example 18, 3-[(1H-1,3-benzodiazol-2-yl)amino]-N-[(1,3-oxazol-2-yl)methyl]-3-[3-(trifluoromethyl)phenyl]propanamide] | < 10
Cn1ccnc1CNC(=O)CC(Nc1nc2ccccc2[nH]1)c1cccc(C(F)(F)F)c1 (centres unmarked) [Example 19, 3-[(1H-1,3-benzodiazol-2-yl)amino]-N-[(1-methyl-1H-imidazol-2-yl)methyl]-3-[3-(trifluoromethyl)phenyl]propanamide] | 10 to 100
CCN(CCO)C(=O)CC(Nc1nc2ccccc2[nH]1)c1ccc(C)c(Cl)c1 (centres unmarked) [Example 20, 3-[(1H-1,3-benzodiazol-2-yl)amino]-3-(3-chloro-4-methylphenyl)-N-ethyl-N-(2-hydroxyethyl)propanamide] | < 10
N#CCNC(=O)CC(Nc1nc2ccccc2[nH]1)c1cccc(C(F)(F)F)c1 (centres unmarked) [Example 21, 3-[(1H-1,3-benzodiazol-2-yl)amino]-N-(cyanomethyl)-3-[3-(trifluoromethyl)phenyl]propanamide] | < 10
CN(C)C(=O)CNC(=O)CC(Nc1nc2ccccc2[nH]1)c1cccc(C(F)(F)F)c1 (centres unmarked) [Example 22, 3-[(1H-1,3-benzodiazol-2-yl)amino]-N-[(dimethylcarbamoyl)methyl]-3-[3-(trifluoromethyl)phenyl]propanamide] | < 10
CCOC(=O)CNC(=O)CC(Nc1nc2ccccc2[nH]1)c1cccc(C(F)(F)F)c1 (centres unmarked) [Example 23, Ethyl 2-{3-[(1H-1,3-benzodiazol-2-yl)amino]-3-[3-(trifluoromethyl)phenyl]propanamido}acetate] | < 10
CN(C)CCN(C)C(=O)C(Nc1nc2ccccc2[nH]1)c1cccc(C(F)(F)F)c1 (centres unmarked) [Example 25, 2-[(1H-1,3-benzodiazol-2-yl)amino]-N-[2-(dimethylamino)ethyl]-N-methyl-2-[3-(trifluoromethyl)phenyl]acetamide] | 10 to 100

More lines, now with the values ahead:

IC50 [µM] | SMILES
10 to 100 | O=C(CC(Nc1nc2ccccc2[nH]1)c1cccc(C(F)(F)F)c1)N1CCC[C@@H](O)C1 (stereo partly drawn) [Example 13, 3-[(1H-1,3-benzodiazol-2-yl)amino]-1-[(3R)-3-hydroxypiperidin-1-yl]-3-[3-(trifluoromethyl)phenyl]propan-1-one]
10 to 100 | O=C(CC(Nc1nc2ccccc2[nH]1)c1cccc(C(F)(F)F)c1)N1CC[C@H](O)C1 (stereo partly drawn) [Example 15, 3-[(1H-1,3-benzodiazol-2-yl)amino]-1-[(3S)-3-hydroxypyrrolidin-1-yl]-3-[3-(trifluoromethyl)phenyl]propan-1-one]
10 to 100 | NCCNC(=O)C(Nc1nc2ccccc2[nH]1)c1cccc(C(F)(F)F)c1 (centres unmarked) [Example 24, N-(2-aminoethyl)-2-[(1H-1,3-benzodiazol-2-yl)amino]-2-[3-(trifluoromethyl)phenyl]acetamide]
10 to 100 | O=C(C(Nc1nc2ccccc2[nH]1)c1cccc(C(F)(F)F)c1)N1CCNCC1 (centres unmarked) [Example 26, 2-[(1H-1,3-benzodiazol-2-yl)amino]-1-(piperazin-1-yl)-2-[3-(trifluoromethyl)phenyl]ethan-1-one]
< 10 | CN1CCN(C(=O)C(Nc2nc3ccccc3[nH]2)c2cccc(C(F)(F)F)c2)CC1 (centres unmarked) [Example 27, 2-[(1H-1,3-benzodiazol-2-yl)amino]-1-(4-methylpiperazin-1-yl)-2-[3-(trifluoromethyl)phenyl]ethan-1-one]
10 to 100 | CN(C)C1CN(C(=O)C(Nc2nc3ccccc3[nH]2)c2cccc(C(F)(F)F)c2)C1 (centres unmarked) [Example 28, 2-[(1H-1,3-benzodiazol-2-yl)amino]-1-[3-(dimethylamino)azetidin-1-yl]-2-[3-(trifluoromethyl)phenyl]ethan-1-one]
< 10 | O=C(C(Nc1nc2ccccc2[nH]1)c1cccc(C(F)(F)F)c1)N1CCCC1 (centres unmarked) [Example 29, 2-[(1H-1,3-benzodiazol-2-yl)amino]-1-(pyrrolidin-1-yl)-2-[3-(trifluoromethyl)phenyl]ethan-1-one]
< 10 | CN(CCO)C(=O)C(Nc1nc2ccccc2[nH]1)c1cccc(C(F)(F)F)c1 (centres unmarked) [Example 30, 2-[(1H-1,3-benzodiazol-2-yl)amino]-N-(2-hydroxyethyl)-N-methyl-2-[3-(trifluoromethyl)phenyl]acetamide]
< 10 | O=C(C(Nc1nc2ccccc2[nH]1)c1cccc(C(F)(F)F)c1)N1CCCCC1 (centres unmarked) [Example 31, 2-[(1H-1,3-benzodiazol-2-yl)amino]-1-(piperidin-1-yl)-2-[3-(trifluoromethyl)phenyl]ethan-1-one]
< 10 | O=C(C(Nc1nc2ccccc2[nH]1)c1cccc(C(F)(F)F)c1)N1CCOCC1 (centres unmarked) [Example 32, 2-[(1H-1,3-benzodiazol-2-yl)amino]-1-(morpholin-4-yl)-2-[3-(trifluoromethyl)phenyl]ethan-1-one]
10 to 100 | CC(C)S(=O)(=O)N1CCN(C(=O)C(Nc2nc3ccccc3[nH]2)c2cccc(C(F)(F)F)c2)CC1 (centres unmarked) [Example 33, 2-[(1H-1,3-benzodiazol-2-yl)amino]-1-[4-(propane-2-sulfonyl)piperazin-1-yl]-2-[3-(trifluoromethyl)phenyl]ethan-1-one]
< 10 | O=C(C(Nc1nc2ccccc2[nH]1)c1cccc(C(F)(F)F)c1)N1CCC1 (centres unmarked) [Example 34, 1-(azetidin-1-yl)-2-[(1H-1,3-benzodiazol-2-yl)amino]-2-[3-(trifluoromethyl)phenyl]ethan-1-one]
10 to 100 | O=C(NC1COC1)C(Nc1nc2ccccc2[nH]1)c1cccc(C(F)(F)F)c1 (centres unmarked) [Example 35, 2-[(1H-1,3-benzodiazol-2-yl)amino]-N-(oxetan-3-yl)-2-[3-(trifluoromethyl)phenyl]acetamide]
10 to 100 | O=C(C(Nc1nc2ccccc2[nH]1)c1cccc(C(F)(F)F)c1)N1CC2(COC2)C1 (centres unmarked) [Example 36, 2-[(1H-1,3-benzodiazol-2-yl)amino]-1-{2-oxa-6-azaspiro[3.3]heptan-6-yl}-2-[3-(trifluoromethyl)phenyl]ethan-1-one]
10 to 100 | C[N+]1(C)CCN(C(=O)C(Nc2nc3ccccc3[nH]2)c2cccc(C(F)(F)F)c2)CC1 (centres unmarked) [Example 37, 4-{2-[(1H-1,3-benzodiazol-2-yl)amino]-2-[3-(trifluoromethyl)phenyl]acetyl}-1,1-dimethylpiperazin-1-ium iodide]
